Reference: patent publication US8216821B2, “Regulation of heterologous recombinant protein expression in methylotrophic and methanotrophic bacteria” (National Research Council of Canada, priority 2005, dated 2012)

What was measured:
[1] = test system: cym and cmt operons; settings: P. putida F1, regulated by cymR; cited from earlier work
[2] = target: T1, repressor protein (cymR) (Pseudomonas putida, UniProt O33453); experiment: cumate induction of gfp reporter gene expression in M. extorquens (cymR2) transformed with pCUM-gfp; assay type: cell-based, Pseudomonas putida F1
T1 construct: expressed in transfected cells; host or cells: Methylobacterium extorquens ATCC 55366, strain cymR2 (two cymR copies integrated by mini-Tn7 under PmxaF), carrying pCUM-gfp
Description: Detection of gene expression Detection of GFP was carried out by fluorescence microscopy, and quantified by using a SPECTRAFluor Plus (TECAN Austria Gmbh, GrodIg, Austria) under excitation and emission wavelengths of 485 and 508 nm, respectively. Concentration of GFP was calculated based on a linear relationship between concentration and fluorescence units determined using solutions of purified GFP (Qbiogene). The biomass (X) was determined by cell dry weight measurement of the samples (Moisture Analyzer MA 30, Sartorius).
(§1) To test the optimal concentration of inducer, cumate, recombinant M. extorquens (cymR2) transformed with pCUM-gfp was grown to mid-log phase (0.8-1.0 units at OD600) at 30° C. followed by induction with cumate at different concentrations. Reporter gene expression was detectable 4 h post induction. Cumate induction was very sensitive since about 47% of reporter gene expression was obtained with 1 μg cumate/ml (FIG. 5). […] Optimum cumate concentration for effective induction of reporter gene expression was 15 μg/ml (ca. 0.1 mM).

[3] = test system: M. extorquens (cymR2); assay type: cell-based, Methylobacterium extorquens; settings: cumate 1-30 μg/ml
Description: M. extorquens (ATCC 55366) was used for the preparation of the heterologous gene expression host. E. coli strain Top10 was used for cloning and propagation of recombinant DNA and S17-1λpir (recA, thi, pro, hsdR^−M^+ RP4:2-Tc:Mu:Km Tn7, pir lysogen; Sm^R, Tp^R) was used for propagation of the helper plasmid (23). E. coli was cultured in Luria Bertani broth (LB) at 37° C. Strain of M. extorquens was grown in CHOI medium, as previously described (17) and 1% (v/v) methanol was used as sole carbon source. Both media were solidified by 1.8% agar (Difco) when appropriate. Antibiotics were used for E. coli and M. extorquens at the following concentrations (in ug/ml): ampicillin, 100; kanamycin (Km), 40; tetracyclin (Tc), 35.
as §1

T1 sequence (O33453 whole entry): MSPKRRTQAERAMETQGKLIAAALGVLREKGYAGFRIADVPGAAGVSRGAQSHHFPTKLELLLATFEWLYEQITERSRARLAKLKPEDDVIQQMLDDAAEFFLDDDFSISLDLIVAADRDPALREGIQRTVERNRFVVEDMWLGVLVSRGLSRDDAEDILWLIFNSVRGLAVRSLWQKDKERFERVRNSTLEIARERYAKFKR

Structure (SMILES) | induction of cym/cmt operon expression [1] | cumate concentration giving maximum gene expression ([2]; FIG. 5, gfp expression) | time post induction at which reporter gene expression was detectable ([2]; cumate at different concentrations) [h] | optimum cumate concentration for effective induction of reporter gene expression ([2]; induced at OD600 0.8-1.0, 30° C.) [µg/mL] | optimum cumate concentration for effective induction of reporter gene expression ([2]; molar equivalent of 15 μg/ml) | time post induction of maximum GFP expression ([2]; pCUM-GFP clones, FIG. 7a, cumate 15 μg/ml) [h] | effect on growth [3]
Cc1ccc(C(C)C)cc1 [p-cymene, p-isopropyltoluene] | not | – | – | – | – | – | –
CC(C)c1ccc(C(=O)O)cc1 [cumate, p-isopropylbenzoate] | Induction is afforded | 15-30 μg cumate/ml | 4 | 15 | ca. 0.1 mM | 30 | No growth difference
